Measurements reported in patent publication US20050043534A1, “Modulators of ceramidase and methods of used based thereon” (priority 2001, published 2005).
pIC50: −log10 of the molar value. Several values for one entry are separate records, joined by “and”; a condition that tells them apart may be missing. Equal values may be shown once.

Columns and labels:
mitochondrial ceramidase = mitochondrial ceramidase (Rattus norvegicus, UniProt Q91XT9); assay: mitochondrial ceramidase (mt-CDase) activity, radioactive assay or HPLC assay; format: biochemical
Procedure: The enzymatic activity of mitochondrial ceramidase was determined by either one of the two following methods:
a. Radioactive assay: The mt-CDase activity was determined by measuring the release of radioactive fatty acid from tritiated ceramide ([^3H]-C16-Cer), labeled in the acyl chain. Briefly, organic solutions of ceramide and its analogues were initially mixed together, solvents were completely evaporated under nitrogen, then the dried lipids were dispersed in Triton-X 100 by sonication and vigorous vortexing. The reaction assay contained (in a final volume of 200 μl): enzyme (5-10 ng) and 10 nmoles of tritiated C16-ceramide (1×10^5 dpm) delivered in 100 μl of 1% Triton X-100 micelles in a glycine buffer pH 9.5 (200 mM).
b. HPLC-assay: The Mt-CDase activity was also determined by measuring the amount of sphingosine released. Basically the assay was initially the same as described above but using non-radioactive ceramide. The reaction was stopped with 800 μl of chloroform: methanol (2:1 v/v) mixture followed by the addition of phyto-sphingosine (0.5 nmoles) and dihydro-sphingosine (1 nmole) as internal standard and carrier, respectively. The reaction mix was then extracted with NaOH (50 μl, 1N), and the lower chloroform layer containing the sphingosine was further washed with water (100 μl) and dried. The released sphingosine was quantified as the ortho-phthaldehyde (OPA) derivatives as described (30). […] The solvent system was methyl alcohol: potassium phosphate buffer (5 mM), pH 7.0 (90:10 v/v) at a flow rate of 1 ml/min. […] Activity was determined relative to the phytosphingosine OPA peak.
The effects of various compounds of the invention which are stereochemical and structural analogues of ceramide and sphingosine on mt-CDase were investigated. […] Results were expressed as percent of the control ceramidase activity.

[1] = system: MCF7 human breast carcinoma cells; assay: MTT cell viability assay, MCF7 cells; format: cell-based; conditions: 18 hours treatment
Procedure: The cells were contained at 37° C. in a humidified atmosphere containing 5% CO2 overnight. On Day 2, the cells were treated with the compound of interest which was dissolved in 100% ethanol. […] The control is a sample without the compound of interest.

[2] = system: human embryonal kidney cells HEK-293; assay: MTT cell viability assay, HEK-293 cells; format: cell-based; conditions: 18 hours treatment
Procedure: MCF7 human breast carcinoma cells (ATCC No. HTB-22) and human embryonal kidney cells HEK-293 (ATCC No. CRL-1573) were purchased from American Type Culture Collection.
To investigate the effect of the compound of interest on each of these cell lines, on Day 1, about 50 μL (about 5,000 cells) of the MCF7 or HEK-293 cells were plated down into 96-well plate which contains RPMI 1640 1× (MOD) media (purchased from Media Tech) containing L-glutamine and 10% fetal calf serum (purchased from Gibco). The cells were contained at 37° C. in a humidified atmosphere containing 5% CO2 overnight. On Day 2, the cells were treated with the compound of interest which was dissolved in 100% ethanol. To facilitate dissolution of the compound of interest, a 98% ethanol/2% dodecane can be used as the solvent instead of 100% ethanol. […] The cells were treated with the compound of interest for 18 hours after which the effect on cell viability was measured by MTT assay (Mossman, T. (1983) J. Immuno. Meth. 65, 55-63; and Berridge, M. V. and Tan, A. S. (1993) Archives of Biochemistry & Biophysics, 303, 474-482) as described below.
MTT Assay: • (1) Add to each well 25 μL of MTT stock solution (5 mg/mL in PBS); • (2) Incubate for 5 hours; • (3) Add 100 μL of lysing buffer (20% SDS (w/v), 50% N,N-Dimethyl formamide (v/v)) and stand overnight; • (4) read plate at 595 nm.

[3] = system: mouse fibroblast cells, L929; assay: TNFα-induced PGE2 release from L929 cells; format: cell-based; conditions: preliminary data
Text: Interleukin-1 is a major inducer of inflammation and TNF is an important regulator of the reaction. Both cytokines can activate ceramidase, and thus inhibiting the activity of ceramidase can result in an anti-inflammatory effect. This may involve the prevention of the formation of sphingosine and sphingosine phosphate which have pro-inflammatory effects. Also, inhibition of ceramidase may prevent the hyperproliferation of immune cells that are important for inflammation. […] The release of PGE2 is also shown to be inhibited by D-(N-myristolyamino)-1-phenyl-1-propanol), D-MAPP, which is an inhibitor of one of the ceramidase. This observation may be important for inhibiting inflammatory reactions that occur in conditions, such as but not limited to rheumatoid arthritis. Thus, it is possible to treat or prevent inflammation by regulating the level of cellular ceramide using the method of the invention. As discussed above, ceramide level can be increased by administering compounds of the present invention that can inhibit mitochondrial ceramidase.

Chain of mitochondrial ceramidase (Q91XT9 whole entry): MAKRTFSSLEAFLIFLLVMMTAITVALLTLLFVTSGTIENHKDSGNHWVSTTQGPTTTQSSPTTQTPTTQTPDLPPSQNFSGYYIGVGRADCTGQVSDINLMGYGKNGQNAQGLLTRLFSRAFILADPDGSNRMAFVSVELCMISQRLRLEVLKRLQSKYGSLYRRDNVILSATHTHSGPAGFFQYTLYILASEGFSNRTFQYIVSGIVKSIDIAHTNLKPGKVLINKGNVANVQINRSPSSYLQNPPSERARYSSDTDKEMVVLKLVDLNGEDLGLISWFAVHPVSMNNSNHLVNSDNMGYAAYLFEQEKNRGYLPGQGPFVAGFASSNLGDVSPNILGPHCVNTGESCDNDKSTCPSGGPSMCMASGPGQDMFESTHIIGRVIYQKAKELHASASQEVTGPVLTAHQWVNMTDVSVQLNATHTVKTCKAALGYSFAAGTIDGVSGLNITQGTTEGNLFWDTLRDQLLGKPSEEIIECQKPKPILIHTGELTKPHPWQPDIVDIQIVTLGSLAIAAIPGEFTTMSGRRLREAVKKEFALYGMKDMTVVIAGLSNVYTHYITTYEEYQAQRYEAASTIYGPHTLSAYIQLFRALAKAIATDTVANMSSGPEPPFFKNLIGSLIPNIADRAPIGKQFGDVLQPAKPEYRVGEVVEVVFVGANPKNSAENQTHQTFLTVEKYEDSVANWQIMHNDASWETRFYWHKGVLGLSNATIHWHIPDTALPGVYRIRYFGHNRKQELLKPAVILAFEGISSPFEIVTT

Row | SMILES | hydrolysis by mt-CDase (substrate or not, in words) (mitochondrial ceramidase) | Estimated IC50 (mole %) (mitochondrial ceramidase; Table 1, ceramide analogues, hydrolysis of D-erythro-C16 or C18-ceramide at 0.625 mole % (50 μM)) | effect on mt-CDase activity (in words) (mitochondrial ceramidase; concentrations as stated at the place) | inhibition at 50 µM (mitochondrial ceramidase; inhibitor at 0.625 mole % (50 μM), read-out: inhibition (maximal inhibition) of mt-CDase activity) | pIC50 (mitochondrial ceramidase; substrate D-erythro-ceramide 50 μM) | IC50 (50% inhibition of mt-CDase activity) (mitochondrial ceramidase; substrate D-erythro-ceramide 0.625 mole %) | type of inhibition (double reciprocal analysis: Km increased, Vmax unchanged) (mitochondrial ceramidase; varying D-erythro-ceramide concentration) | effect on cell growth and proliferation (in words) [1] | effect on cell growth and proliferation (in words) [2] | melting point | release of PGE2 [3]
1 | CCCCCCCCCCCCC/C=C/[C@@H](O)[C@H](CO)NC(=O)NCCCCCCCCCCCCCCCC [Compound C16-urea-Cer, (2S, 3R,4E)-N-[2-(1,3-Dihydroxy-4E-octadecene)]-N′-hexadecane-urea] | not a substrate | 0.33 mole % | potent inhibitor | 75% | 4.60 | 0.33 mole % and 0.31 mole % | competitive inhibitor | potent inhibitor of cell growth and proliferation | potent inhibitor of cell growth and proliferation | 105 to 106 °C | –
2 | CCCCCCCCCCCCCC(=O)NC(C)C(O)c1ccccc1 [D-MAPP] | – | – | – | – | – | – | – | – | – | – | inhibited
